Measured values: PMC4929566, “The metabolome of [2-^14C](−)-epicatechin in humans: implications for the assessment of efficacy, safety, and mechanisms of action of polyphenolic bioactives” (Scientific Reports, 2016)
Like-named read-outs stand apart in the source and are kept apart here.

What was measured:
[1] = Metabolite profiling and pharmacokinetics in plasma (targeted HPLC-MS2); format: in vivo, humans; details: for AUC0-24h / Cmax / T1/2 (elimination half-life) / Tmax / AUC(0-t) / half-life: human plasma, oral 60 mg 14C-EC, mean ± SEM n=8; for AUC(0-t): read-out: AUC0-24h; for half-life: read-out: T1/2 (elimination half-life) (converted); for Identification as human EC metabolite: human plasma and urine, radiolabeled tracer
Protocol: (§1) The study was a single-center, open-label, and non-randomized study with two distinct elements: a run-in phase to establish a more defined dietary background of dietary flavanols and procyanidins and the subsequent ^14C-EC ADME study (Fig. 1B). Participants (n = 12) were enrolled in the run-in phase (day –17 to day –4) and asked to supplement their daily diet for 14 days with a commercially available flavanol-containing cocoa-based drink (250 mg cocoa flavanols; 40 mg of EC). This was followed by a 4-day period (day –4 to 0) of a low-flavanol diet. One day (study day -1) prior to the initialization of the ^14C-EC ADME study, all eligible participants were accommodated under controlled conditions at a metabolic research facility (Covance Clinical Pharmacology Inc., Wisconsin) until completion of the study. Based on the compliance of the first part of the study, 8 participants were selected to participate in the ^14C-EC ADME study. During the ^14C-EC ADME study (Fig. 1B.), volunteers received a low-flavanol, standardized high-fiber diet, and were encouraged to maintain an adequate level of hydration (water ad libitum). Volunteers were asked to fast for 8 h before the initiation of the study and for at least 4 h after the intake of the ^14C-EC test drink (water ad libitum). Venous blood samples were taken using Vacutainer collection tubes, containing potassium EDTA at 0 h (just prior to ^14C-EC ingestion), and at 0.25, 0.5, 1, 1.5, 2, 2.5, 3, 4, 6, 8, 10, 12, 16, 24, 36, and 48 h after test drink consumption. Plasma was obtained by whole blood centrifugation at 2000 × g for 15 min at 5 °C, separated into aliquots and stored at −80 °C until analysis. All urine and feces from the time just prior to the consumption of the test drink were collected at different time intervals for radioactivity and metabolite profiling. Clinical parameters and laboratory evaluations of participants were assessed at screening, on study day –1, and after completing the study, as detailed in Supplementary Methods.
(§2) Samples were processed as described previously[18] and analyzed by HPLC-MS^2 in conjunction with an on-line HPLC-radioactivity monitor as described in SI Materials and Methods. Identification of metabolites involved comparing the retention time with authentic standards and MS^2 fragmentation patterns (Supplementary Methods). Quantification of metabolites in urine was based on HPLC radioactivity peak area (limit of quantification: 10^3 dpm). Due to the low levels of radioactivity, quantification in plasma was based on targeted HPLC-MS^2 using standard curves obtained with authentic standards (Supplementary Methods).
Data are expressed as mean values ± standard error, or as otherwise specified. Pharmacokinetic parameters were calculated using non-compartmental analysis with WinNonlin (Pharsight Corporation, Version 5.2).
5-20% acetonitrile in 0.1 % formic acid. Supplementary Table S2 provides details of HPLC retention times and the m/z values that were monitored.
Supplementary Table S2. Detection of (−)-epicatechin metabolites. HPLC retention times and selected reaction monitoring ions used for the HPLC-MS analysis of (−)-epicatechin metabolites in plasma. […]
Structurally related (-)-epicatechin metabolites in humans: assessment using de novo chemically synthesized authentic standards. Free Radic Biol Med 52, 1403- […]
3 Borges, G. et al. Bioavailability of multiple components following acute ingestion of a polyphenol-rich juice drink. Mol Nutr Food Res 54 Suppl 2, S268-277, […]
4 Stalmach, A. et al. Absorption, metabolism, and excretion of green tea flavan-3-ols in humans with an ileostomy. Mol Nutr Food Res 54, 323-334,

[2] = Metabolite profiling and quantification in urine (HPLC-MS2 with on-line radioactivity detector); format: in vivo, humans; details: human, oral 207 μmol 14C-EC, mean ± SEM n=8; for Metabolite present in urine, collection period 4–8 h / Metabolite present in urine, collection period 8–12 h / Metabolite present in urine, collection period 12–24 h / Metabolite present in urine, collection period 24–48 h / Metabolite present in urine, collection period 0–4 h: – = not detected
Protocol: as §1, §2
HPLC-MS identifications of radiolabeled [2-14C](−)-epicatechin metabolites in urine Urine was analyzed with radioactivity and mass spectrometry (MS) detection using a 250 mm x 4.6 mm i.d. 5 µm Luna Phenyl-Hexyl column (Phenomenex, Macclesfield, UK) […]
formic acid. Metabolite identification was performed by 1) co-chromatography of metabolites with reference compounds and a comparison of their MS fragmentation patterns 2, 2) by comparing m/z fragmentation patterns with earlier in-house observed […]
patterns to databases of metabolites reported in earlier polyphenol feeding studies5-7.
Supplementary Table S2, which also provides information on the MSI MI (Metabolite Standards Initiative – Metabolites Identification) level, a confidence level for identification where level 1 stands for fully elucidated (i.e., by comparison with a standard) and level 2 for a well characterized, but not yet fully structurally elucidated 8

| Molecule | AUC0-24h [1] [nM·h] | Cmax [1] [µM] | T1/2 (elimination half-life) [1] [h] | Tmax [1] [h] | Metabolite present in urine, collection period 0–48 h [2] [μ mol] | Metabolite present in urine, collection period 4–8 h [2] [μ mol] | Metabolite present in urine, collection period 8–12 h [2] [μ mol] | Metabolite present in urine, collection period 12–24 h [2] [μ mol] | Metabolite present in urine, collection period 0–4 h [2] [μ mol] | also measured |
| --- | --- | --- | --- | --- | --- | --- | --- | --- | --- | --- |
| 5-(Hydroxyphenyl)-γ-hydroxyvaleric acid-sulfate | 1490 ± 475 | 0.056 ± 0.009 | 7.6 ± 3.5 | 5.9 ± 0.6 | – | – | – | – | – | – |
| 5-(Phenyl)-γ-valerolactone-O-sulfate-O-glucuronide | 1020 ± 481 | 0.039 ± 0.009 | 6.4 ± 2.2 | 5.5 ± 1.1 | – | – | – | – | – | – |
| O=C(O)CNC(=O)c1cccc(O)c1 [3′-Hydroxyhippuric acid] | – | – | – | – | 16.9 ± 5.8 | 1.6 ± 0.5 | 2.8 ± 0.7 | 7.0 ± 2.9 | – | Metabolite present in urine, collection period 24–48 h [2]: 5.5 ± 2.3 μ mol |
| COc1cc([C@H]2Oc3cc(O)cc(O)c3C[C@H]2O)ccc1OS(=O)(=O)O [3′-O-Methyl-(−)-epicatechin-4′-sulfate] | 203 ± 69 | 0.053 ± 0.013 | 2.3 ± 0.6 | 0.9 ± 0.1 | 0.7 ± 0.2 | – | – | – | 0.7 ± 0.2 | – |
| COc1cc([C@H]2Oc3cc(O)cc(OS(=O)(=O)O)c3C[C@H]2O)ccc1O [3′-O-Methyl-(−)-epicatechin-5-sulfate, 3′-O-methyl-(−)-epicatechin-5-sulfate] | – | – | – | – | 9.6 ± 1.2 | 1.8 ± 0.3 | 0.4 ± 0.1 | 0.3 ± 0.2 | 7.1 ± 0.9 | Cmax ([1]; male): 0.24 ± 0.024 µM; AUC(0-t) ([1]; male): 915 ± 178 nM·h; half-life ([1]; male): 1.6 ± 0.1 h; Tmax ([1]; male, read-out: Tmax): 0.9 ± 0.1 h |
| COc1cc([C@H]2Oc3cc(OS(=O)(=O)O)cc(O)c3C[C@H]2O)ccc1O [3′-O-Methyl-(−)-epicatechin-7-sulfate, 3′-O-methyl-(−)-epicatechin-7-sulfate] | 1030 ± 260 | 0.159 ± 0.02 | 2.4 ± 0.2 | 1.1 ± 0.1 | 1.2 ± 0.3 | 0.3 ± 0.1 | – | – | 0.9 ± 0.2 | – |
| COc1cc([C@H]2Oc3cc(O)cc(O[C@@H]4O[C@H](C(=O)O)[C@@H](O)[C@H](O)[C@H]4O)c3C[C@H]2O)ccc1O [3′-O-methyl(−)-epicatechin-5-O-β-D-glucuronide] | 25 ± 10 | 0.023 ± 0.005 | 1.3 ± 0.2 | 0.8 ± 0.2 | – | – | – | – | – | Relative amount (% of total) of individual SREM in plasma ([1]; human, 1 h post 14C-EC intake, Fig. 4A): < 3% |
| COc1cc([C@H]2Oc3cc(O[C@@H]4O[C@H](C(=O)O)[C@@H](O)[C@H](O)[C@H]4O)cc(O)c3C[C@H]2O)ccc1O [3′-O-methyl(−)-epicatechin-7-O-β-D-glucuronide] | 77 ± 31 | 0.039 ± 0.005 | 1.3 ± 0.3 | 0.9 ± 0.1 | – | – | – | – | – | – |
| COc1ccc([C@H]2Oc3cc(O)cc(OS(=O)(=O)O)c3C[C@H]2O)cc1O [4′-O-Methyl-(−)-epicatechin-5-sulfate] | 128 ± 45 | 0.053 ± 0.014 | 1.4 ± 0.3 | 0.9 ± 0.1 | 1.1 ± 0.3 | 0.1 ± 0.1 | – | – | 1.0 ± 0.2 | – |
| O=C1CCC(Cc2ccc(O[C@@H]3O[C@H](C(=O)O)[C@@H](O)[C@H](O)[C@H]3O)c(O)c2)O1 (stereo partly shown) [5-(3′-Hydroxyphenyl)-γ-valerolactone-4′-O-glucuronide] | 1330 ± 396 | 0.052 ± 0.009 | 4.4 ± 1.3 | 6.1 ± 0.8 | – | – | – | – | – | – |
| O=C1CCC(Cc2ccc(O)c(O[C@@H]3O[C@H](C(=O)O)[C@@H](O)[C@H](O)[C@H]3O)c2)O1 (stereo partly shown) [5-(4′-Hydroxyphenyl)-γ-valerolactone-3′-O-glucuronide] | – | – | – | – | – | – | – | – | – | Cmax ([1]; male): 0.125 ± 0.03 µM; AUC(0-t) ([1]; male): 1910 ± 787 nM·h; half-life ([1]; male): 3.1 ± 0.6 h; Tmax ([1]; male, read-out: Tmax): 6.8 ± 0.8 h |
| O=C(O)CCC(O)Cc1cccc(OS(=O)(=O)O)c1 (stereo not shown) [5-(Phenyl)-4-hydroxyvaleric acid-3′-sulfate] | – | – | – | – | 2.9 ± 1.6 | 1.9 ± 1.0 | 0.3 ± 0.2 | 0.7 ± 0.7 | – | – |
| O=C1CCC(Cc2cccc(OS(=O)(=O)O)c2)O1 (stereo not shown) [5-(Phenyl)-γ-valerolactone-3′-sulfate] | – | – | – | – | 4.7 ± 2.7 | 2.4 ± 1.1 | 1.2 ± 0.9 | 1.0 ± 0.8 | 0.1 ± 0.1 | – |
| O=C(O)[C@H]1O[C@@H](Oc2cc(O)c3c(c2)O[C@H](c2ccc(O)c(O)c2)[C@H](O)C3)[C@H](O)[C@@H](O)[C@@H]1O [(−)-Epicatechin-7-O-glucuronide, (−)-epicatechin-7-O-β-D-glucuronide] | 45 ± 14 | 0.022 ± 0.007 | 1.7 ± 0.3 | 0.8 ± 0.1 | – | – | – | – | – | – |
| O=S(=O)(O)Oc1cc(O)c2c(c1)O[C@H](c1ccc(O)c(O)c1)[C@H](O)C2 [(−)-Epicatechin-7-sulfate] | 43 ± 16 | 0.019 ± 0.003 | 2.2 ± 0.4 | 1.1 ± 0.2 | – | – | – | – | – | – |
| O=S(=O)(O)Oc1ccc([C@H]2Oc3cc(O)cc(O)c3C[C@H]2O)cc1O [(−)-epicatechin-4′-sulfate, reference compound] | – | – | – | – | – | – | – | – | – | Identification as human EC metabolite [1]: could not be identified by us |
| O=C(O)[C@H]1O[C@@H](Oc2ccc([C@H]3Oc4cc(O)cc(O)c4C[C@H]3O)cc2O)[C@H](O)[C@@H](O)[C@@H]1O [(−)-epicatechin-4′-β-D-glucuronide, reference compound] | – | – | – | – | – | – | – | – | – | Identification as human EC metabolite [1]: could not be identified by us |
| O=C(O)CNC(=O)c1ccccc1 [Hippuric acid] | – | – | – | – | 26.4 ± 7.1 | 7.2 ± 3.9 | 5.6 ± 2.6 | 7.1 ± 2.1 | 0.6 ± 0.4 | Metabolite present in urine, collection period 24–48 h [2]: 5.9 ± 4.1 μ mol |
| Hydroxyphenylacetic acid-sulfate | – | – | – | – | 2.9 ± 1.1 | 0.9 ± 0.5 | 0.8 ± 0.6 | 1.2 ± 0.4 | – | – |
